From EP4603105A1, “PHARMACEUTICAL COMPOSITION CONTAINING CYCLIC COMPOUND HAVING SELECTIVE KRAS INHIBITORY EFFECT AGAINST HRAS AND NRAS” (CHUGAI SEIYAKU KABUSHIKI KAISHA, priority 2022, dated 2024)
Like-named read-outs stand apart in the source and are kept apart here.

Columns and labels:
[1] = test system: human lung cancer strain NCI-H441; format: cell-based
Method in brief: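 Signal came from […] measured per well once the reagent was added. Beforehand, cells were cultured at 37°C and 5% carbon dioxide on a compound series serially diluted in dimethyl sulfoxide.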

[2] = molecular target: GDP-bound NRAS wild-type protein (Homo sapiens, UniProt P01111); assay: Binding to NRAS by surface plasmon resonance (SPR), KD and KD ratio to KRAS
Sequence of GDP-bound NRAS wild-type protein (P01111 whole entry): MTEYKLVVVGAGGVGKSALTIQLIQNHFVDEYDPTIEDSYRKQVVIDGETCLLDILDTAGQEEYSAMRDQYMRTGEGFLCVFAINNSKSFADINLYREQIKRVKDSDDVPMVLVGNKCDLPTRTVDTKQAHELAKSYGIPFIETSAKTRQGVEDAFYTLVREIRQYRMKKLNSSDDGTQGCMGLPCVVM
Method in brief: (§1)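 Measured at 30°C: SPR with GDP-loaded, E. coli-expressed biotin-Avi RAS captured (~100–300 RU), ascending 75 s compound injections, HBS pH 7.4 with GDP, MgCl2, 4% DMSO. KD from 1:1 fit.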

HRAS wild-type protein = HRAS wild-type protein (Homo sapiens, UniProt P01112); assay: Binding to HRAS by surface plasmon resonance (SPR), KD and KD ratio to KRAS
Sequence of HRAS wild-type protein (P01112 whole entry): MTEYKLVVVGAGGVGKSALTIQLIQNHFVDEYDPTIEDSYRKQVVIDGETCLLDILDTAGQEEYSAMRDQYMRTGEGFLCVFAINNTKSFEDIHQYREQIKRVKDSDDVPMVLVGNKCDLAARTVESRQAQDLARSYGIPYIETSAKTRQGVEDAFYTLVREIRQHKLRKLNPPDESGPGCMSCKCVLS
Method in brief: as §1

[3] = ratio of KD for GDP-bound NRAS wild-type protein to KD for KRAS
[4] = ratio of KD for HRAS wild-type protein to KD for KRAS
[5] = ratio of the KD value with respect to GDP-bound NRAS wild-type protein to the KD value with respect to KRAS
[6] = ratio of the KD value with respect to HRAS wild-type protein to the KD value with respect to KRAS
[7] = ratio of KD value for GDP-bound NRAS wild-type protein to KD value for KRAS (SPR)
[8] = ratio of KD value for HRAS wild-type protein to KD value for KRAS (SPR)

IC50 [1] | SMILES | NRAS /KRAS [2, 3] | HRAS /KRAS (HRAS wild-type protein; [4]) | NRAS /KRAS [2, 5] | HRAS /KRAS (HRAS wild-type protein; [6]) | NRAS /KRAS [2, 7] | HRAS /KRAS (HRAS wild-type protein; [8]) | IC50 ([1]; NCI-H441 cells, 4 days, CellTiter-Glo, read-out: NCl-H441 IC50)
17 nM | CCO[C@@H]1C[C@H]2C(=O)NC3(CCC3)C(=O)N(C)[C@@H](C3CCCC3)C(=O)N(C)[C@H](C(=O)N(C)C)CC(=O)N(C)[C@@H](C(C)C)C(=O)N[C@@H]([C@@H](C)CC)C(=O)N(C)CC(=O)N(C)[C@H]3C/C=C\CCN(C3=O)[C@@H](Cc3ccc(C(F)(F)F)cc3)C(=O)N(C)CC(=O)N[C@@H](CCc3cc(F)c(C(F)(F)F)c(F)c3)C(=O)N2C1 [PP1109] | A (a compound having 10 or more and less than 20 is denoted as A) | B (a compound having 3 or more and less than 10 is denoted as B) |  |  |  |  | 
6.5 nM | CCO[C@@H]1C[C@H]2C(=O)NC3(CC(C)(C)C3)C(=O)N(C)[C@@H](C3CCCC3)C(=O)N(C)[C@H](C(=O)N(C)CC)CC(=O)N(C)[C@H]3CCCCCc4ccc(cc4)C[C@@H](C(=O)N(C)CC(=O)N[C@@H](CCc4ccc(C(F)(F)F)c(OC)c4)C(=O)N2C1)N1CC/C=C\C[C@@H](C1=O)N(C)C(=O)CN(C)C(=O)[C@H]([C@@H](C)CC)NC3=O [PP2259] |  |  | A (a compound having 10 or more and less than 20 is denoted as A) | B (a compound having 3 or more and less than 10 is denoted as B) |  |  | 
220 nM | CC[C@H](C)[C@@H]1NC(=O)[C@H](CC)N(C)C(=O)C[C@@H](C(=O)N(C)C)N(CC)C(=O)[C@H](C2CCCC2)N(C)C(=O)C2(CCC2)NC(=O)[C@@H]2C[C@@H](N3CCC(F)(F)CC3)CN2C(=O)[C@H](CCc2cc(F)c(C(F)(F)F)c(F)c2)NC(=O)CN(C)C(=O)[C@H](Cc2ccc(C(F)(F)F)cc2)N2CCCC[C@@H](C2=O)N(C)C(=O)CN(C)C1=O [PP0733] |  |  | B (a compound having 3 or more and less than 10 is denoted as B) | B (a compound having 3 or more and less than 10 is denoted as B) |  |  | 
3.8 nM | CC[C@H](C)[C@@H]1NC(=O)[C@H](CC(F)F)N(C)C(=O)C[C@@H](C(=O)N(C)C)N(C)C(=O)[C@H](C2CCCC2)N(C)C(=O)C2(CC(C)(C)C2)NC(=O)[C@@H]2CC(F)(F)CN2C(=O)[C@H](CCc2cc(F)c(C(F)(F)F)c(F)c2)NC(=O)CN(C)C(=O)[C@H](Cc2ccc(C(F)(F)F)cc2)N2CC/C=C\C[C@@H](C2=O)N(C)C(=O)CN(C)C1=O [PP1709] |  |  |  |  | A (a compound having 10 or more and less than 20 is denoted as A) | A (a compound having 10 or more and less than 20 is denoted as A) | 
56.3 nM | CCC[C@H]1C(=O)N[C@@H]([C@@H](C)CC)C(=O)N(C)CC(=O)N(C)[C@H]2C/C=C\CCN(C2=O)[C@@H](Cc2ccc(C)cc2)C(=O)N(C)CC(=O)N[C@@H](CCc2ccc3sc(C)c(C)c3c2)C(=O)N2C[C@H](OCC)C[C@H]2C(=O)NC2(CC(C)(C)C2)C(=O)N(C)[C@@H](C(CC)CC)C(=O)N(C)[C@H](C(=O)N(C)C)CC(=O)N1C [PP2902] | AA (a compound having 20 or more is denoted as AA) | A (a compound having 10 or more and less than 20 is denoted as A) |  |  |  |  | 
5.2 nM | CC[C@H](C)[C@@H]1NC(=O)[C@H](CC(C)C)N(C)C(=O)C[C@@H](C(=O)N(C)C)N(C)C(=O)[C@H](C2CCCC2)N(C)C(=O)C2(CCC2)NC(=O)[C@@H]2C[C@@H](C)CN2C(=O)[C@H](CCc2ccc(C(F)(F)F)c(Cl)c2)NC(=O)CN(C)C(=O)[C@H](Cc2ccc(C)cc2)N2CC/C=C\C[C@@H](C2=O)N(C)C(=O)CN(C)C1=O [PP1854] |  |  |  |  | A (a compound having 10 or more and less than 20 is denoted as A) | A (a compound having 10 or more and less than 20 is denoted as A) | 
 | CCC[C@H]1C(=O)N[C@@H]([C@@H](C)CC)C(=O)N(C)CC(=O)N(C)[C@H]2C/C=C\CCN(C2=O)[C@@H](Cc2ccc(C(F)(F)F)cc2)C(=O)N(C)CC(=O)N[C@@H](CCc2cc(F)c(CC)c(OC)c2)C(=O)N2C[C@H](OCC)C[C@H]2C(=O)NC2(CC(C)(C)C2)C(=O)N(C)[C@@H](C2CCCC2)C(=O)N(C)[C@H](C(=O)N(C)C)CC(=O)N1C [PP2862] | A (a compound having 10 or more and less than 20 is denoted as A) | B (a compound having 3 or more and less than 10 is denoted as B) |  |  |  |  | 36.3 nM
11.6 nM | CCCN(C)C(=O)[C@@H]1CC(=O)N(C)[C@@H](COCC)C(=O)N[C@@H]([C@@H](C)CC)C(=O)N(C)CC(=O)N(C)[C@H]2C/C=C\CCN(C2=O)[C@@H](Cc2ccc(C(F)(F)F)cc2)C(=O)N(C)CC(=O)N[C@@H](CCc2ccc(C(F)(F)F)c(OC)c2)C(=O)N2C[C@H](OCC)C[C@H]2C(=O)NC2(CC(C)(C)C2)C(=O)N(C)[C@@H](C2CCCC2)C(=O)N1C [PP2012] |  |  | AA (a compound having 20 or more is denoted as AA) | A (a compound having 10 or more and less than 20 is denoted as A) |  |  | 
